# Like-named read-outs stand apart in the source and are kept apart here.
# Tests used:
# JAK2 = molecular target: T1, JAK2 (Homo sapiens, UniProt O60674); assay: Recombinant Human JAK2 Kinase Assay (TRF); format: biochemical; conditions: read-out: JAK2 Potency
# T1 construct: host or cells: baculovirus expression system
# Method: Compounds were tested for their ability to inhibit the kinase activity of baculovirus-expressed JAK2 using the TRF detection system. […] The plates were coated first with 100 μL/well of 10 μg/mL Neutravidin (Pierce #31000, Rockford, Ill.) in TBS at 37° C. for 2 hours, followed by 100 μL/well of 1 μg/mL 15-mer peptide substrate (biotinyl-amino-hexanoyl-[…]-amide, Infinity Biotech Research and Resource, Aston, Pa.) at 37° C. for another hour. The JAK2 assay mixture (total volume=100 μL/well) consisting of 20 mM HEPES (pH 7.2), 0.2 μM ATP, 1 mM MnCl2, 0.1% BSA, and test compound (diluted in DMSO; 2.5% DMSO final in assay) was then added to the assay plate. Enzyme (15 ng/ml JAK2) was added and the reaction was allowed to proceed at room temperature for 20 minutes. Detection of the phosphorylated product was performed by adding 100 μL/well of Eu—N1 labeled PY100 antibody (PerkinElmer Life Sciences #AD0041, Boston, Mass.).
# ALK = molecular target: T2, ALK (Homo sapiens, UniProt Q9UM73); assay: ALK Kinase Assay (ELISA/TRF, PLC-γ substrate); format: biochemical; conditions: read-out: ALK Potency
# T2 construct: host or cells: baculovirus expression system
# Procedure, shortened: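 PLC-γ coat 10 μg/mL in TBS; ALK 30 ng/ml added to start; 37° C, 15 min; Eu-N1 PT66 antibody detection (TRF). IC50: % inhibition vs log10 [cpd], variable-slope sigmoidal fit.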
# [1] = JAK2 kinase inhibition, 0.2 μM ATP
# [2] = ALK kinase inhibition, 1 μM ATP
# T2 sequence (Q9UM73 19-1620): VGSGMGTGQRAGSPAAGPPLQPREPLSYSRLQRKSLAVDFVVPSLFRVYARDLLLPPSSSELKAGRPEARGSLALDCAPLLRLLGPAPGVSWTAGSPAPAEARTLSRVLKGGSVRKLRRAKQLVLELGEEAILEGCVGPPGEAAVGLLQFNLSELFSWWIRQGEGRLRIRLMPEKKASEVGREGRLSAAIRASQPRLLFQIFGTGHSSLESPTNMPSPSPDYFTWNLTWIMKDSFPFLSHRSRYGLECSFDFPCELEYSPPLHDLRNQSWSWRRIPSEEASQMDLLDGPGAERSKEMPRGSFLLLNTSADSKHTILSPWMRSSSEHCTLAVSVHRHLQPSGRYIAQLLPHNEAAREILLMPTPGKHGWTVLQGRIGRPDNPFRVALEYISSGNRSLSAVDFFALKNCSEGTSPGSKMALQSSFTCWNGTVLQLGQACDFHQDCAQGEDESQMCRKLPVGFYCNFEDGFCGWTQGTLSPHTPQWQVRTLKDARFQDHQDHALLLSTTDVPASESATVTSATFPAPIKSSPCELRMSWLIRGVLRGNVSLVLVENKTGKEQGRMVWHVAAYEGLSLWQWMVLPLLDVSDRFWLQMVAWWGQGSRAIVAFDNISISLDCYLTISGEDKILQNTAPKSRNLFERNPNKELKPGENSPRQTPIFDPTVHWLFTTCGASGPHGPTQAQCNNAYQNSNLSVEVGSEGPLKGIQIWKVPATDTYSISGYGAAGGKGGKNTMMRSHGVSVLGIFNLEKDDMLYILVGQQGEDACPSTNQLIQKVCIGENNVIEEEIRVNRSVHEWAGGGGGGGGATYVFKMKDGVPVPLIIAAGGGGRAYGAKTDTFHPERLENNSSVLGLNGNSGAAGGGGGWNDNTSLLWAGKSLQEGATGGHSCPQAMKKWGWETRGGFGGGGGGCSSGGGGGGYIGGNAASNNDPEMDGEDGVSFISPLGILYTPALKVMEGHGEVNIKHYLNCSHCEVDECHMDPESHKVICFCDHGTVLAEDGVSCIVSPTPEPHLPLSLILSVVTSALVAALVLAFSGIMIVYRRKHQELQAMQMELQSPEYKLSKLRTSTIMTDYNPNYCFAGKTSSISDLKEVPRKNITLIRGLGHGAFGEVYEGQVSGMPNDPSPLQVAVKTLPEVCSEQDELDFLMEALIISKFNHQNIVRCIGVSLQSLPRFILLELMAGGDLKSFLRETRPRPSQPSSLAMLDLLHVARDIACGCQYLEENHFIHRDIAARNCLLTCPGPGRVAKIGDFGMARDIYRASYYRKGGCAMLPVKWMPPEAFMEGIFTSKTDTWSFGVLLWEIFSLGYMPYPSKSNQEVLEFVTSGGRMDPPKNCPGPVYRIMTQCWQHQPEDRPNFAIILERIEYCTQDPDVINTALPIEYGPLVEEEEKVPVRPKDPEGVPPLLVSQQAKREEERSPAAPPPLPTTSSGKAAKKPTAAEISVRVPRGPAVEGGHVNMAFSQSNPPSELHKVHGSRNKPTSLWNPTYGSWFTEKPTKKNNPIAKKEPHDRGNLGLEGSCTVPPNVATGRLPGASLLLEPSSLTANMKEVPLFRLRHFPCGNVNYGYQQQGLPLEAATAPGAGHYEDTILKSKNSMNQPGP
# T1 sequence (O60674 whole entry): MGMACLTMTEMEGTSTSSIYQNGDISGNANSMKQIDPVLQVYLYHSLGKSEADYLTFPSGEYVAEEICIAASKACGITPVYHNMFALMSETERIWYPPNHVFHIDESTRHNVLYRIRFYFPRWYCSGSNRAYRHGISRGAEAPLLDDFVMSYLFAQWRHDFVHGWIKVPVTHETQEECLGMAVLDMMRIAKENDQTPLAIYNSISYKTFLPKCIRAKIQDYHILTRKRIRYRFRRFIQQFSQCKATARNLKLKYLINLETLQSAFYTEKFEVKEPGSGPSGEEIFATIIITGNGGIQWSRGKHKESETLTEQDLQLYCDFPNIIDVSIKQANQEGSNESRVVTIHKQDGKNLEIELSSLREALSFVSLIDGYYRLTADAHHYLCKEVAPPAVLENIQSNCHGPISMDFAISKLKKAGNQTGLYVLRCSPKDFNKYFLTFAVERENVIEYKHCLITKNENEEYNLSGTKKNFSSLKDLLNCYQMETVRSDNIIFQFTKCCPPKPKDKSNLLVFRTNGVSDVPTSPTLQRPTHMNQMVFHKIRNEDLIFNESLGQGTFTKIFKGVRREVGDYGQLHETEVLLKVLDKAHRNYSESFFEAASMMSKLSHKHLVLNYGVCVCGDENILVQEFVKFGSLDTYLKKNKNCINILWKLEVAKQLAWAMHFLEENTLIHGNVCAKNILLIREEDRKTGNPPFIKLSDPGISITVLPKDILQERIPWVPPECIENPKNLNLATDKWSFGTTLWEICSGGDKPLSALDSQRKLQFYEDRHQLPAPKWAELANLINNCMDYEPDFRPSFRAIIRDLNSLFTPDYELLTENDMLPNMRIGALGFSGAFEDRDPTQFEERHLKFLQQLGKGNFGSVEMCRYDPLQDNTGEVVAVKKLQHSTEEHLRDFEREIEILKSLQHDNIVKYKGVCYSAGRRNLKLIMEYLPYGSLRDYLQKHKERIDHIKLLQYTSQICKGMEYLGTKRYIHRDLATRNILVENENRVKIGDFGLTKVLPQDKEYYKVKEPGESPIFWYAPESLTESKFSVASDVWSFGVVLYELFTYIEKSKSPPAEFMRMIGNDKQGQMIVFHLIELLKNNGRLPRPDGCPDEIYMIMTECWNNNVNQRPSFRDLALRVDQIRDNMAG
Structure (SMILES),IC50 (JAK2; [1]) [nM],IC50 (ALK; [2]) [nM],IC50 (JAK2; JAK2 Kinase Inhibition) [nM],IC50 (ALK; ALK Kinase Inhibition) [nM]
"COc1ccc(C2CCN(C)CC2)cc1Nc1ncc2ccc(-c3ccccc3N(C)S(C)(=O)=O)n2n1 [Example 774, N-(2-{2-[2-Methoxy-5-(1-methyl-piperidin-4-yl)-phenylamino]-pyrrolo-[2,1-f][1,2,4]triazin-7-yl}-phenyl)-N-methyl-methanesulfonamide]",100 to 1000,< 100,,
"CCN1CCOC(c2ccc(Nc3ncc4ccc(-c5ccccc5OC)n4n3)cc2)C1 (stereo not drawn) [Example 252, [4-(4-Ethyl-morpholin-2-yl)-phenyl]-[7-(2-methoxy-phenyl)-pyrrolo[2,1-f][1,2,4]triazin-2-yl]-amine]",,,< 100,< 100
"CC(=O)Nc1cccc(Nc2ncc3ccc(-c4cccc(NCCS(C)(=O)=O)c4)n3n2)c1 [Example 893, N-(3-{7-[3-(2-Methanesulfonyl-ethylamino)-phenyl]-pyrrolo[2,1-f][1,2,4]triazin-2-ylamino}-phenyl)-acetamide]",< 100,1000 to 10000,,
"COc1ccccc1-c1ccc2cnc(Nc3cc4c(cc3F)CCC(=O)N4)nn12 [Example 922, 6-Fluoro-7-[7-(2-methoxy-phenyl)-pyrrolo[2,1-f][1,2,4]triazin-2-ylamino]-3,4-dihydro-1H-quinolin-2-one]",< 100,1000 to 10000,,
"COc1ccccc1-c1ccc2cnc(Nc3ccc(OC)c(N4CCOCC4)c3)nn12 [Example 394, (4-Methoxy-3-morpholin-4-yl-phenyl)-[7-(2-methoxy-phenyl)-pyrrolo[2,1-f][1,2,4]triazin-2-yl]-amine]",,,< 100,< 100
"COc1cc2c(cc1Nc1ncc3ccc(-c4cccc(S(=O)(=O)NC5CC5)c4)n3n1)CCN(CC(N)=O)CC2 [Example 524, 2-{7-[7-(3-Cyclopropylsulfamoyl-phenyl)-pyrrolo[2,1-f][1,2,4]triazin-2-ylamino]-8-methoxy-1,2,4,5-tetrahydro-benzo[d]azepin-3-yl}-acetamide]",100 to 1000,< 100,,
"COc1ccccc1-c1ccc2cnc(Nc3ccc(C4CCN(C(=O)C5CCN(C)CC5)CC4)cc3)nn12 [Example 500, (4-{4-[7-(2-Methoxy-phenyl)-pyrrolo[2,1-f][1,2,4]triazin-2-ylamino]-phenyl}-piperidin-1-yl)-(1-methyl-piperidin-4-yl)-methanone]",< 100,< 100,,
"COc1ccccc1-c1c(C)c(C)c2cnc(Nc3ccc(N4CCOCC4)cc3)nn12 [Example 112, [7-(2-Methoxy-phenyl)-5,6-dimethyl-pyrrolo[2,1-f][1,2,4]triazin-2-yl]-(4-morpholin-4-yl-phenyl)-amine]",,,< 100,100 to 1000
"COc1cc2c(cc1Nc1ncc3ccc(-c4ccccc4N(C)S(C)(=O)=O)n3n1)CCCC(N1CCOCC1)C2 (stereo not drawn) [Example 993, N-{2-[2-(3-Methoxy-6-morpholin-4-yl-6,7,8,9-tetrahydro-5H-benzocyclohepten-2-ylamino)-pyrrolo[2,1-f][1,2,4]triazin-7-yl]-phenyl}-N-methyl-methanesulfonamide]",100 to 1000,< 100,,
"COc1ccc(-c2ccc3cnc(Nc4ccc(C5CCN(CC(N)=O)CC5)c(C)c4)nn23)cn1 [Example 934, 2-(4-{4-[7-(6-Methoxy-pyridin-3-yl)-pyrrolo[2,1-f][1,2,4]triazin-2-ylamino]-2-methyl-phenyl}-piperidin-1-yl)-acetamide]",< 100,< 100,,
"CC(=O)Nc1cc(Nc2ncc3ccc(-c4cccc(Cl)c4)n3n2)ccc1C(C)C [Example 303, N-{5-[7-(3-Chloro-phenyl)-pyrrolo[2,1-f][1,2,4]triazin-2-ylamino]-2-isopropyl-phenyl}-acetamide]",,,< 100,1000 to 10000
"COc1cc(N2CCC(N(C)C)CC2)ccc1Nc1ncc2ccc(-c3ccc(S(C)(=O)=O)cc3)n2n1 [Example 477, [4-(4-Dimethylamino-piperidin-1-yl)-2-methoxy-phenyl]-[7-(4-methanesulfonyl-phenyl)-pyrrolo[2,1-f][1,2,4]triazin-2-yl]-amine]",< 100,< 100,,
"COc1ccccc1-c1cc(C#N)c2cnc(Nc3ccc(N4CCN(C)CC4)cc3)nn12 [Example 114, 7-(2-Methoxy-phenyl)-2-[4-(4-methyl-piperazin-1-yl)-phenylamino]-pyrrolo[2,1-f][1,2,4]triazine-5-carbonitrile]",,,< 100,100 to 1000
"COc1cc(N2CCC(N3CCCOCC3)CC2)ccc1Nc1ncc2ccc(-c3ccccc3N(C)S(C)(=O)=O)n2n1 [Example 783, N-(2-{2-[2-Methoxy-4-(4-[1,4]oxazepan-4-yl-piperidin-1-yl)-henylamino]-pyrrolo[2,1-f][1,2,4]triazin-7-yl}-phenyl)-N-methyl-methanesulfonamide]",100 to 1000,< 100,,
"COc1ccc(Cl)cc1-c1ccc2cnc(Nc3ccc(CN4CCN(C)CC4)cc3)nn12 [Example 354, [7-(5-Chloro-2-methoxy-phenyl)-pyrrolo[2,1-f][1,2,4]triazin-2-yl]-[4-(4-methyl-piperazin-1-ylmethyl)-phenyl]-amine]",,,< 100,< 100
"Clc1cccc(Nc2ncc3cc4ccccc4n3n2)c1 [Example 271, (3-Chloro-phenyl)-[1,2,4]triazino[1,6-a]indol-2-yl-amine]",,,100 to 1000,> 10000
"COc1cc(C2CCN(C[C@H](Oc3ncc4ccc(-c5ccccc5OC)n4n3)C(F)(F)F)CC2)ccc1N [Example 786, 2-Methoxy-4-(1-{(S)-3,3,3-trifluoro-2-[7-(2-methoxy-phenyl)-pyrrolo[2,1-f][1,2,4]triazin-2-yloxy]-propyl}-piperidin-4-yl)-phenylamine]",> 10000,> 10000,,
"COc1cc(C2CCN(CC(N)=O)C2)ccc1Nc1ncc2ccc(-c3ccccc3N(C)S(C)(=O)=O)n2n1 (racemic) [Example 837, (±)-2-[3-(4-{7-[2-(Methanesulfonyl-methyl-amino)-phenyl]-pyrrolo[2,1-f][1,2,4]triazin-2-ylamino}-3-methoxy-phenyl)-pyrrolidin-1-yl]-acetamide]",100 to 1000,< 100,,

# Now from value to compound:
IC50 (JAK2; [1]) [nM],IC50 (ALK; [2]) [nM],IC50 (JAK2; JAK2 Kinase Inhibition) [nM],IC50 (ALK; ALK Kinase Inhibition) [nM],Structure (SMILES)
,,< 100,> 10000,"CC(=O)N1CCc2ccc(Nc3ncc4ccc(-c5cccc(S(=O)(=O)NC(C)(C)C)c5)n4n3)cc21 [Example 1372, 3-[2-(1-Acetyl-2,3-dihydro-1H-indol-6-ylamino)-pyrrolo[2,1-f][1,2,4]triazin-7-yl]-N-tert-butyl-benzenesulfonamide]"
< 100,100 to 1000,,,"CN1CCN(C)C(c2ccc(Nc3ncc4ccc(-c5ccccc5N(C)S(C)(=O)=O)n4n3)cc2)C1=O (stereo not drawn) [Example 1073, N-(2-{2-[4-(1,4-Dimethyl-3-oxo-piperazin-2-yl)-phenylamino]-pyrrolo[2,1-f][1,2,4]triazin-7-yl}-phenyl)-N-methyl-methanesulfonamide]"
< 100,< 100,,,"OCCN1CCN(c2ccc(Nc3ncc4ccc(-c5cccc(Cl)c5)n4n3)cc2)CC1 [Example 1134, 2-(4-{4-[7-(3-Chloro-phenyl)-pyrrolo[2,1-f][1,2,4]triazin-2-ylamino]-phenyl}-piperazin-1-yl)-ethanol]"
< 100,1000 to 10000,,,"O=S(=O)(c1cccc(-c2ccc3cnc(Nc4ccc(-c5cccnc5)cc4)nn23)c1)N1CCOCC1 [Example 1090, {7-[3-(Morpholine-4-sulfonyl)-phenyl]-pyrrolo[2,1-f][1,2,4]triazin-2-yl}-(4-pyridin-3-yl-phenyl)-amine]"
< 100,> 10000,,,"O=S(=O)(CC1CC1)c1cccc(-c2ccc3cnc(Nc4ccc5nc(C(F)(F)F)[nH]c5c4)nn23)c1 [Example 1318, [7-(3-Cyclopropylmethanesulfonyl-phenyl)-pyrrolo[2,1-f][1,2,4]triazin-2-yl]-(2-trifluoromethyl-3H-benzimidazol-5-yl)-amine]"
< 100,100 to 1000,,,"Cn1cnc2ccc(Nc3ncc4ccc(-c5ccccc5NS(C)(=O)=O)n4n3)cc21 [Example 1310, N-{2-[2-(3-Methyl-3H-benzoimidazol-5-ylamino)-pyrrolo[2,1-f][1,2,4]triazin-7-yl]-phenyl}-methanesulfonamide]"
< 100,100 to 1000,,,"CN1CCN(c2ccc(Nc3ncc4ccc(-c5ccc(CNCCS(C)(=O)=O)o5)n4n3)cc2)CC1 [Example 1200, (7-{5-[(2-Methanesulfonyl-ethylamino)-methyl]-furan-2-yl}-pyrrolo[2,1-f][1,2,4]triazin-2-yl)-[4-(4-methyl-piperazin-1-yl)-phenyl]-amine]"
< 100,< 100,,,"CC(C)(C)NS(=O)(=O)c1cccc(-c2ccc3cnc(Nc4ccc(C5CCNCC5O)cc4)nn23)c1 (stereo not drawn) [Example 1014, N-tert-Butyl-3-{2-[4-(3-hydroxy-piperidin-4-yl)-phenylamino]-pyrrolo[2,1-f][1,2,4]triazin-7-yl}-benzenesulfonamide]"
,,< 100,< 100,"COc1ccccc1-c1ccc2cnc(Nc3ccc(CN4CCCC4)cc3)nn12 [Example 1430, [7-(2-Methoxy-phenyl)-pyrrolo[2,1-f][1,2,4]triazin-2-yl]-(4-pyrrolidin-1-ylmethyl-phenyl)-amine]"
